Holding throughout (experiment): NCI-60 cell line screen, 48 h
Assay [1] has as its system IGROV1 ovarian.
Assay [2] has as its system LOX IMVI melanoma.
The subject of assay [3] is SK-MEL-2 melanoma.
Assay [4] deals with HT29 colon.
Assay [5] deals with BT-549 breast.
For assay [6], the system named is HCT-15 colon.
For assay [7], the system named is HOP-62 NSCLC.
Assay [8] relates to NCI-H226 lung.
Assay [9] relates to U251 CNS.
The test system of assay [10] is RPMI-8226 leukemia.

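Step 1: Grow cells in 96-well plates. Step 2: Expose to compound for 48 hours at 5 concentrations. Step 3: Interpolate endpoints linearly; if unreached, use highest concentration. GI50: concentration for 50% inhibition of growth. At the TGI there is no net growth.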 Some results are limits rather than exact numbers.

For `COc1ccc(NC(=O)/C=C(C)/C=C/C=C(C)\C=C\C2=C(C)CCCC2(C)C)cc1`, the GI50 in assay [1] is 54.3 µM; in assay [2], 32 µM; in assay [3], 72.4 µM; in [4] it was 41.2 µM; in [5] it was greater than 100 µM; in [6] it was greater than 100 µM. Also, the GI50 in assay [7] was greater than 100 µM; in assay [8], greater than 100 µM; in assay [9], greater than 100 µM; in [10], 1.71 µM. Moreover, the TGI in [1], in assay [2], in assay [3], in [4], in assay [5] and in assay [6] was greater than 100 µM in each case. Also, the TGI is greater than 100 µM in assay [7], greater than 100 µM in [8], greater than 100 µM in [9] and 64.4 µM in [10].
With `O=C1c2ccccc2-c2c1c1ccccc1c(=O)n2-c1ccccc1`, the TGI in [1] was greater than 52.7 µM; in [2], greater than 100 µM; in assay [3], 50.6 µM; in assay [4] it was greater than 100 µM; in assay [5], greater than 52 µM; in assay [6], greater than 100 µM. For the same molecule, the TGI was 14.9 µM in assay [7], 41.4 µM in assay [8], 39.9 µM in assay [9] and greater than 100 µM in assay [10].
For `O=[As]c1ccc(C(=O)c2ccc(Oc3ccccc3)cc2)cc1` (stereo not given), the GI50 is 0.044 µM in assay [1]; 0.0246 µM in assay [2]; 0.118 µM in assay [3]; 0.0379 µM in assay [4]; 0.135 µM in [5]; 0.0362 µM in [6]. Further, the GI50 in assay [7] was 0.0356 µM; in [8] it was 0.106 µM; in assay [9], 0.0181 µM; in assay [10], 0.0267 µM. In addition, the TGI in [1] was 0.219 µM; in [2] it was 0.0796 µM; in assay [3], 0.287 µM; in [4], 0.154 µM; in assay [5] it was 0.278 µM; in assay [6], 0.15 µM. Further, the TGI was found to be 0.105 µM in assay [7], 0.226 µM in assay [8], 0.0586 µM in [9] and 0.105 µM in [10].
For `OC(COc1cccc2ccccc12)CN1CCN(c2ccccc2Cl)CC1` (stereo not given), the GI50 in assay [1] was 10 µM; in assay [2], 14.2 µM; in assay [3] it was 15.4 µM; in assay [4] it was 3.3 µM; in assay [5], 12.9 µM; in [6] it was 12.8 µM. Besides, the GI50 in assay [7] is 13.7 µM; in assay [8], 15 µM; in assay [9] it was 17.1 µM; in [10], 13.2 µM. The TGI in assay [1] is 25.5 µM; in [2], 30.2 µM; in assay [3], 29.5 µM; in assay [4], 12.5 µM; in assay [5] it was 26.3 µM; in assay [6], 28.6 µM. Moreover, the TGI in assay [7] was determined as 27.3 µM; in assay [8], 31.6 µM; in assay [9], 31.6 µM; in assay [10], 38.3 µM.
Turning to `Oc1c(CN2CCOCC2)cc(COCc2ccccc2)c2cccnc12`, the GI50 in [1] is 3.85 µM; in assay [2], 1.19 µM; in [3] it was 3.22 µM; in [4], 19.8 µM; in assay [5], 3.19 µM; in [6], 0.286 µM. The GI50 in assay [7] is 1.48 µM; in assay [8], 4.65 µM; in assay [9], 2.77 µM; in assay [10], 4.06 µM. The TGI in assay [1] is greater than 100 µM; in assay [2], 10.4 µM; in assay [3], 59.1 µM; in assay [4], 65.4 µM; in [5], 81.8 µM; in assay [6], 13.3 µM. Besides, the TGI in assay [7] was greater than 100 µM; in [8] it was 36.8 µM; in [9] it was greater than 100 µM; in assay [10] it was greater than 100 µM.
`CCOc1cc(C(C)(C)C)ccc1C1=N[C@@](C)(c2ccc(Cl)cc2)[C@@](C)(c2ccc(Cl)cc2)N1C(=O)N1CCN(CCS(C)(=O)=O)CC1`: the GI50 in assay [1] was 1.49 µM; in [2] it was 1.17 µM; in assay [3], 5.29 µM; in assay [4], 2.29 µM; in assay [5], 3.24 µM; in [6] it was 2.27 µM. Also, the GI50 in assay [7] was 2.86 µM; in [8], 0.5 µM; in [9], 2.89 µM; in assay [10], 2.49 µM. The TGI in assay [1] was 6.54 µM; in assay [2], 3.6 µM; in [3], 18.3 µM; in assay [4], 4.74 µM; in assay [5], 10 µM; in [6] it was 5.79 µM. Moreover, the TGI in assay [7] turned out to be 8.57 µM; in assay [8], 2.13 µM; in assay [9], 8.52 µM; in [10] it was 6.77 µM.
On to `O=C(Nc1cc(-c2cccnc2)nc(NCCCN2CCOCC2)n1)c1cc(Br)cc(C(F)(F)F)c1`, for which the GI50 in assay [1] was 4.67 µM; in assay [2] it was 1.62 µM; in assay [3] it was 4.52 µM; in assay [4], 2.12 µM; in assay [5], 3.27 µM; in [6], 1.92 µM. Besides, the GI50 in [7] is 2.71 µM; in assay [8] it was 9.3 µM; in [9], 2.05 µM; in assay [10], 3.15 µM. For the same molecule, the TGI worked out at 19.5 µM in assay [1]; 3.06 µM in assay [2]; 17 µM in assay [3]; 4.95 µM in assay [4]; 15 µM in [5]; 5.28 µM in assay [6]. In addition, the TGI in [7] is 9.98 µM; in assay [8], 22.7 µM; in assay [9] it was 4.3 µM; in assay [10], 9.69 µM.
Consider `COC(=O)[C@]12CC[C@@H](C)[C@H](C)[C@@H]1C1=CC[C@@H]3[C@@]4(C)CC(=O)[C@H](OC(=O)c5ccco5)[C@@]5(C)COC(=C45)C[C@@]3(C)[C@]1(C)CC2`, for which the GI50 in [1] was 3.71 µM; in assay [2], 0.427 µM; in assay [3], 5.63 µM; in assay [4], 0.523 µM; in assay [5] it was 2.91 µM; in [6] it was 0.54 µM. For the same molecule, the GI50 in assay [7] is 17.6 µM; in assay [8], 83.1 µM; in [9], 0.703 µM; in assay [10] it was 0.584 µM. In addition, the TGI in assay [1], in assay [2], in [3], in assay [4], in assay [5] and in assay [6] was greater than 100 µM throughout. In addition, the TGI in [7], in assay [8], in assay [9] and in [10] was greater than 100 µM each time.
For `C=CCCC(=O)N1C=CC(=O)[C@H](O)[C@@H]1/C=C/c1ccccc1`, the GI50 was 9.4 µM in assay [1]; 6.28 µM in assay [2]; greater than 32.5 µM in assay [3]; 14.4 µM in [4]; 11 µM in assay [5]; 2.39 µM in [6]. Further, the GI50 in assay [7] is 13.3 µM; in assay [8], 9.57 µM; in [9], 7.44 µM; in assay [10] it was 15.6 µM. Further, the TGI in assay [1], in assay [2], in assay [3], in assay [4], in assay [5] and in [6] was greater than 32.5 µM in each case. The TGI in assay [7], in [8], in assay [9] and in assay [10] was greater than 32.5 µM each time.
Regarding `CN(C)CCNc1nc2ccccc2c2c(=O)c3ccccc3sc12`, the GI50 is 1.81 µM in assay [1]; 1.37 µM in [2]; 1.78 µM in assay [3]; 1.8 µM in assay [4]; 1.88 µM in assay [5]; 1.97 µM in assay [6]. Also, the GI50 in assay [7] was 1.94 µM; in assay [8], 1.77 µM; in assay [9] it was 2.25 µM; in [10], 2.42 µM. Also, the TGI is 4.53 µM in assay [1]; 2.8 µM in assay [2]; 3.41 µM in assay [3]; 4.81 µM in assay [4]; 3.67 µM in assay [5]; 4.85 µM in [6]. The TGI in assay [7] came out at 4.29 µM; in [8], 5.82 µM; in [9], 6.01 µM; in assay [10], 6.35 µM.
In the case of `C[N+](C)([O-])CCCNc1ccnc2cccc([N+](=O)[O-])c12`, the TGI was greater than 100 µM in [1]; greater than 100 µM in assay [2]; 45.8 µM in assay [3]; greater than 100 µM in assay [4]; greater than 100 µM in [5]; 61.6 µM in assay [6]. The TGI is greater than 100 µM in assay [7], greater than 100 µM in assay [8], greater than 100 µM in assay [9] and 57.6 µM in assay [10].
On to `CC[C@H](NC(=O)[C@H](CS(=O)(=O)CC1CC1)N[C@@H](c1ccc(F)cc1)C(F)(F)F)C(=O)C(=O)NC1CC1`, for which the GI50 in [1], in [2], in assay [3], in assay [4], in assay [5] and in assay [6] was greater than 100 µM each time. Besides, the GI50 in assay [7], in assay [8], in [9] and in [10] was greater than 100 µM in each case. Also, the TGI in assay [1], in assay [2], in assay [3], in [4], in assay [5] and in [6] was greater than 100 µM in each case. Besides, the TGI in assay [7], in assay [8], in assay [9] and in assay [10] was greater than 100 µM throughout.
For `CC(C)(C)C(=O)OCc1nc2cc3c(cc2c(=O)[nH]1)CCC3=O`, the GI50 in assay [1], in [2], in assay [3], in assay [4], in assay [5] and in assay [6] was greater than 100 µM throughout. The GI50 in assay [7], in [8], in assay [9] and in assay [10] was greater than 100 µM in each case. Moreover, the TGI in [1], in [2], in [3], in [4], in assay [5] and in assay [6] was greater than 100 µM each time. Moreover, the TGI in [7], in assay [8], in assay [9] and in assay [10] was greater than 100 µM each time.
For `COc1ccc2c(c1)CC[C@@H]1[C@@H]2CC[C@]2(C)C=C(/C=C/C(=O)c3ccccc3)C[C@@H]12`, the GI50 was 13.3 µM in assay [1]; 14.9 µM in [2]; 21 µM in [3]; 17 µM in assay [4]; 17.3 µM in assay [5]; 17.4 µM in assay [6]. Moreover, the GI50 in [7] was 16.9 µM; in [8] it was 17.1 µM; in assay [9], 16.6 µM; in assay [10], 24.3 µM. Besides, the TGI in assay [1] turned out to be 27.4 µM; in [2], 29.9 µM; in assay [3] it was 41.5 µM; in assay [4], 35.7 µM; in assay [5], 32.7 µM; in [6], 34.3 µM. The TGI in assay [7] is 31.2 µM; in [8] it was 33.6 µM; in assay [9], 31.3 µM; in assay [10], 54.4 µM.
For `Nc1c(C(=O)Nc2cccc(Br)c2)sc2nc3c(cc12)C(O)CCC3` (stereo not given), the GI50 was 0.833 µM in [1]; 0.726 µM in assay [2]; 0.484 µM in assay [3]; 0.319 µM in assay [4]; 0.972 µM in [5]; 0.35 µM in assay [6]. Further, the GI50 in assay [7] is 0.575 µM; in assay [8], 0.936 µM; in [9] it was 0.487 µM; in [10], 0.404 µM. Further, the TGI in assay [1] is greater than 70.3 µM; in assay [2], greater than 85.1 µM; in assay [3] it was 36.8 µM; in assay [4], 11 µM; in assay [5], greater than 75.3 µM; in assay [6], greater than 100 µM. The TGI worked out at 48.3 µM in [7], 54.4 µM in assay [8], 20.4 µM in assay [9] and 23.5 µM in [10].

(Values after PubChem BioAssay (NCI).)
